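Values below derive from 48-hour exposures of cells grown in 96-well plates, with endpoints linearly interpolated between the two concentrations bracketing the appropriate inhibition level. At the GI50, growth is halved.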 The source made the active and inactive calls. Cut-off read from the data, not from the text of the source: active = GI50 up to about 1.1 µM and inactive = higher.
Key:
Experiment in all cases: inhibition of tumour cell growth, NCI panel, 48 h
NCI-H226 = tested on: NCI-H226
Malme-3M = tested on: Malme-3M
A498 = tested on: A498
SK-MEL-2 = tested on: SK-MEL-2
SK-MEL-28 = tested on: SK-MEL-28
A549 = tested on: A549
OVCAR-5 = tested on: OVCAR-5
U-251 = tested on: U-251
IGROV-1 = tested on: IGROV-1
UACC-62 = tested on: UACC-62
SNB-75 = tested on: SNB-75
NCI-H522 = tested on: NCI-H522
NCI-H460 = tested on: NCI-H460
HOP-62 = tested on: HOP-62
KM12 = tested on: KM12
OVCAR-4 = tested on: OVCAR-4
COLO 205 = tested on: COLO 205
MCF7 = tested on: MCF7
ACHN = tested on: ACHN
SK-MEL-5 = tested on: SK-MEL-5

SMILES	GI50 (NCI-H226)	GI50 (Malme-3M)	GI50 (A498)	GI50 (SK-MEL-2)	GI50 (SK-MEL-28)	GI50 (A549)	GI50 (OVCAR-5)	GI50 (U-251)	GI50 (IGROV-1)	GI50 (UACC-62)	GI50 (SNB-75)	GI50 (NCI-H522)	GI50 (NCI-H460)	GI50 (HOP-62)	GI50 (KM12)	GI50 (OVCAR-4)	GI50 (COLO 205)	GI50 (MCF7)	GI50 (ACHN)	GI50 (SK-MEL-5)
Cc1ccc(S(=O)(=O)CN2C(=O)C(c3ccccc3)(c3ccccc3)C23OC(c2ccc(Cl)cc2)=CC3=O)cc1 (stereo not given)	> 10 µM (inactive)	> 10 µM (inactive)	> 10 µM (inactive)	> 10 µM (inactive)	> 10 µM (inactive)	> 10 µM (inactive)	> 10 µM (inactive)	> 10 µM (inactive)	> 10 µM (inactive)	> 10 µM (inactive)	> 10 µM (inactive)	> 10 µM (inactive)	> 10 µM (inactive)	> 10 µM (inactive)	> 10 µM (inactive)	> 10 µM (inactive)	> 10 µM (inactive)	> 10 µM (inactive)	> 10 µM (inactive)	> 10 µM (inactive)
Clc1ccc(-c2cn3c(nc4ccccc43)c(-c3ccccc3)n2)cc1	47 µM (inactive)	23.1 µM (inactive)	23.9 µM (inactive)	14.1 µM (inactive)	39.8 µM (inactive)	17.4 µM (inactive)	> 38.9 µM (inactive)	12.8 µM (inactive)	24 µM (inactive)	11.4 µM (inactive)	9.51 µM (inactive)	13.8 µM (inactive)	18 µM (inactive)	11.5 µM (inactive)	> 57.5 µM (inactive)	5.85 µM (inactive)	40.2 µM (inactive)	28.1 µM (inactive)	29.6 µM (inactive)	17.7 µM (inactive)
c1c[nH]c(CN2CCN(Cc3ncc[nH]3)CC2)n1	> 100 µM (inactive)	> 100 µM (inactive)	> 100 µM (inactive)	> 100 µM (inactive)	> 100 µM (inactive)	> 100 µM (inactive)	> 100 µM (inactive)	> 100 µM (inactive)	> 100 µM (inactive)	> 100 µM (inactive)	> 100 µM (inactive)	> 100 µM (inactive)	> 100 µM (inactive)	> 100 µM (inactive)	> 100 µM (inactive)	> 100 µM (inactive)	> 100 µM (inactive)	> 100 µM (inactive)	> 100 µM (inactive)	> 100 µM (inactive)
CC(C)(C)C1=CC(=C(c2ccc(-c3c4nc(c(-c5ccc(C(=C6C=C(C(C)(C)C)C(=O)C(C(C)(C)C)=C6)c6cc(C(C)(C)C)c(O)c(C(C)(C)C)c6)cc5)c5ccc([nH]5)c(-c5ccc(C(=C6C=C(C(C)(C)C)C(=O)C(C(C)(C)C)=C6)c6cc(C(C)(C)C)c(O)c(C(C)(C)C)c6)cc5)c5nc(c(-c6ccc(C(=C7C=C(C(C)(C)C)C(=O)C(C(C)(C)C)=C7)c7cc(C(C)(C)C)c(O)c(C(C)(C)C)c7)cc6)c6ccc3[nH]6)C=C5)C=C4)cc2)c2cc(C(C)(C)C)c(O)c(C(C)(C)C)c2)C=C(C(C)(C)C)C1=O	> 100 µM (inactive)	> 100 µM (inactive)	> 100 µM (inactive)	> 100 µM (inactive)	> 100 µM (inactive)	> 100 µM (inactive)	> 100 µM (inactive)	> 100 µM (inactive)	> 100 µM (inactive)	> 100 µM (inactive)	> 100 µM (inactive)	> 100 µM (inactive)	> 100 µM (inactive)	> 100 µM (inactive)	> 100 µM (inactive)	> 100 µM (inactive)	> 100 µM (inactive)	> 100 µM (inactive)	> 100 µM (inactive)	> 100 µM (inactive)
CCN(CC)CCN1c2ccccc2Sc2ccc3ccccc3c21	7.45 µM (inactive)	15.4 µM (inactive)	11.4 µM (inactive)	14.3 µM (inactive)	7.46 µM (inactive)	14.2 µM (inactive)	9.1 µM (inactive)	9.38 µM (inactive)	10.2 µM (inactive)	8.57 µM (inactive)	7.06 µM (inactive)	11.8 µM (inactive)	2.07 µM (inactive)	14.9 µM (inactive)	7 µM (inactive)	5.36 µM (inactive)	4.75 µM (inactive)	9.27 µM (inactive)	13.7 µM (inactive)	4.72 µM (inactive)
CC1N=C(c2ccccc2)OC1=O (stereo not given)	> 100 µM (inactive)	> 100 µM (inactive)	> 100 µM (inactive)	> 100 µM (inactive)	> 100 µM (inactive)	> 100 µM (inactive)	> 100 µM (inactive)	> 100 µM (inactive)	> 100 µM (inactive)	> 100 µM (inactive)	> 100 µM (inactive)	> 100 µM (inactive)	> 100 µM (inactive)	> 100 µM (inactive)	> 100 µM (inactive)	> 100 µM (inactive)	> 100 µM (inactive)	> 100 µM (inactive)	> 100 µM (inactive)	> 100 µM (inactive)
CCOC(=O)NC(Nc1ccc(F)c(F)c1)(C(=O)OCC)C(F)(F)F (stereo not given)	> 100 µM (inactive)	> 100 µM (inactive)	> 100 µM (inactive)	17.5 µM (inactive)	> 100 µM (inactive)	> 100 µM (inactive)	> 100 µM (inactive)	> 100 µM (inactive)	> 28.1 µM (inactive)	0.186 µM (active)	98.9 µM (inactive)	> 100 µM (inactive)	> 100 µM (inactive)	> 100 µM (inactive)	3.23 µM (inactive)	> 46.3 µM (inactive)	> 60.4 µM (inactive)	> 100 µM (inactive)	27 µM (inactive)	13.8 µM (inactive)
COc1cc2c(c(OC)c1OC)-c1ccc(SC)c(=O)cc1[C@@H](NC(=O)C(F)(F)F)CC2	0.199 µM (active)	< 0.01 µM (active)	< 0.01 µM (active)	< 0.01 µM (active)	0.766 µM (active)	< 0.01 µM (active)	0.259 µM (active)	< 0.01 µM (active)	< 0.01 µM (active)	< 0.0102 µM (active)	0.019 µM (active)	< 0.01 µM (active)	< 0.01 µM (active)	< 0.0103 µM (active)	< 0.01 µM (active)	10.3 µM (inactive)	< 0.01 µM (active)	< 0.01 µM (active)	< 0.01 µM (active)	< 0.01 µM (active)
COC1(OC)C=CC2C1C1C=CC2C1(OC)OC (stereo not given)	> 100 µM (inactive)	> 100 µM (inactive)	> 100 µM (inactive)	> 100 µM (inactive)	> 100 µM (inactive)	> 100 µM (inactive)	> 100 µM (inactive)	> 100 µM (inactive)	> 100 µM (inactive)	> 100 µM (inactive)	> 100 µM (inactive)	> 100 µM (inactive)	> 100 µM (inactive)	> 100 µM (inactive)	> 100 µM (inactive)	> 100 µM (inactive)	> 100 µM (inactive)	> 100 µM (inactive)	> 100 µM (inactive)	> 100 µM (inactive)
CCCC(=O)Nc1cc(/C=C/C(=O)N2C[C@H]3C[C@@]34C2=CC(=O)c2[nH]cc(C)c24)n(C)c1	< 0.0025 µM (active)	< 0.0025 µM (active)	< 0.0025 µM (active)	< 0.0025 µM (active)	< 0.0025 µM (active)	0.00395 µM (active)	< 0.0025 µM (active)	< 0.0025 µM (active)	< 0.0025 µM (active)	< 0.0025 µM (active)	< 0.0025 µM (active)	< 0.0025 µM (active)	< 0.0025 µM (active)	< 0.0025 µM (active)	< 0.0025 µM (active)	< 0.0025 µM (active)	< 0.0025 µM (active)	< 0.0025 µM (active)	< 0.0025 µM (active)	< 0.0025 µM (active)
NC(=O)NNCc1c(-c2ccccc2)no[n+]1[O-]	> 100 µM (inactive)	> 100 µM (inactive)	> 100 µM (inactive)	> 100 µM (inactive)	> 100 µM (inactive)	> 100 µM (inactive)	> 100 µM (inactive)	> 100 µM (inactive)	> 100 µM (inactive)	> 100 µM (inactive)	> 100 µM (inactive)	> 100 µM (inactive)	> 100 µM (inactive)	> 100 µM (inactive)	> 100 µM (inactive)	> 100 µM (inactive)	> 100 µM (inactive)	> 100 µM (inactive)	> 100 µM (inactive)	> 100 µM (inactive)
O=S(=O)(O)c1cc(O)c(/N=N\C2S(=O)(=O)OCCOS2(=O)=O)c2ccccc12	> 100 µM (inactive)	> 100 µM (inactive)	> 100 µM (inactive)	> 100 µM (inactive)	> 100 µM (inactive)	> 100 µM (inactive)	> 100 µM (inactive)	71.8 µM (inactive)	37.9 µM (inactive)	91 µM (inactive)	25.6 µM (inactive)	> 100 µM (inactive)	23.4 µM (inactive)	43.6 µM (inactive)	> 100 µM (inactive)	> 100 µM (inactive)	> 100 µM (inactive)	> 100 µM (inactive)	46 µM (inactive)	> 100 µM (inactive)
N/C(=N\c1ccc(Cl)cc1)NS(=O)(=O)c1ccc(S(=O)(=O)c2ccccc2)s1	26.4 µM (inactive)	20 µM (inactive)	17.4 µM (inactive)	14.1 µM (inactive)	19.7 µM (inactive)	23.9 µM (inactive)	31.9 µM (inactive)	14.4 µM (inactive)	13.8 µM (inactive)	11.3 µM (inactive)	35.7 µM (inactive)	14.5 µM (inactive)	17.3 µM (inactive)	18.1 µM (inactive)	22.8 µM (inactive)	17.5 µM (inactive)	18.4 µM (inactive)	17.2 µM (inactive)	20.9 µM (inactive)	15.8 µM (inactive)
